Data: patent publication US9981940B2, “Aryl sulfide derivatives and aryl sulfoxide derivatives as acaricides and insecticides” (BAYER CROPSCIENCE AKTIENGESELLSCHAFT, priority 2013, dated 2018)

Key:
[1] = log P by HPLC (OECD Guideline 117), method [b] neutral range; type: physicochemical; conditions: HPLC; for chromatographic logP: reversed-phase C18 HPLC column, neutral range, pH 7.8
Procedure: (§1) The log P values were determined analogously to OECD Guideline 117 (EC Directive 92/69/EEC) by HPLC (high-performance liquid chromatography) using reversed-phase columns (C 18), by the following methods:
[b] The LC-MS determination in the neutral range is effected at pH 7.8 with 0.001 molar aqueous ammonium hydrogencarbonate solution and acetonitrile as eluents; linear gradient from 10% acetonitrile to 95% acetonitrile.

Tetranychus urticae = Tetranychus urticae spray test, OP-resistant (TETRUR); type: in vivo; conditions: application rate of 500 g/ha, after 6 days; for pest or weed control at 500 g/ha: Tetranychus urticae, 144 h, read-out: efficacy
Method in brief: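 Bean leaf discs infested with all stages of an OP-resistant Tetranychus urticae strain sprayed with compound in acetone/DMF with alkylaryl polyglycol ether emulsifier, diluted in water. Efficacy in % scored after 6 days; 100% means all mites killed.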

Phaedon cochleariae = Phaedon cochleariae spray test (PHAECO); type: in vivo; conditions: application rate of 500 g/ha, after 7 days
Method in brief: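 Chinese cabbage (Brassica pekinensis) leaf discs sprayed with acetone/DMF/emulsifier formulation diluted in emulsifier-containing water, dried, then populated with mustard beetle larvae. Efficacy scored after 7 days as % larvae killed (100% = all killed, 0% = none).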

Boophilus microplus = Boophilus microplus injection test (BOOPMI Inj); type: in vivo; conditions: application rate of 20 μg/animal, assessed after 7 days by laying of fertile eggs
Method in brief: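 Engorged adult female ticks (5 per test) injected in the abdomen with 1 μl of compound solution in DMSO, then held in a climate-controlled room. Efficacy scored after 7 days from fertile egg laying, with 100% meaning no fertile eggs and 0% all eggs fertile.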

Myzus persicae = Myzus persicae spray test (MYZUPE); type: in vivo; conditions: after 6 days
Procedure: Myzus persicae—Spray Test (MYZUPE)
• Solvent: 78 parts by weight of acetone • 1.5 parts by weight of dimethylformamide • Emulsifier: 0.5 part by weight of alkylaryl polyglycol ether
To produce an appropriate active ingredient formulation, 1 part by weight of active ingredient is mixed with the specified amounts of solvent and emulsifier, and the concentrate is diluted to the desired concentration with emulsifier-containing water.
Discs of Chinese cabbage leaves (Brassica pekinensis) infested by all stages of the green peach aphid (Myzus persicae) are sprayed with an active ingredient formulation of the desired concentration.
After 6 days, the activity in % is determined 100% means that all the aphids have been killed; 0% means that none of the aphids have been killed.

[2] = log P by HPLC (OECD Guideline 117), method [a] acidic range; type: physicochemical; conditions: for chromatographic logP: reversed-phase C18 HPLC column, acidic range
Procedure: as §1
[a] The LC-MS determination in the acidic range is effected at pH 2.7 with 0.1% aqueous formic acid and acetonitrile (contains 0.1% formic acid) as eluents; linear gradient from 10% acetonitrile to 95% acetonitrile.

Spodoptera frugiperda = Spodoptera frugiperda spray test (SPODFR); type: in vivo; conditions: application rate of 500 g/ha; after 7 days
Procedure: Spodoptera frugiperda—Spray Test (SPODFR)
• Solvent: 78.0 parts by weight of acetone • 1.5 parts by weight of dimethylformamide • Emulsifier: alkylaryl polyglycol ether
To produce an appropriate active ingredient formulation, 1 part by weight of active ingredient is dissolved using the specified parts by weight of solvent and made up with water containing an emulsifier concentration of 1000 ppm until the desired concentration is attained. To produce further test concentrations, the preparation is diluted with emulsifier-containing water.
Leaf discs of maize (Zea mays) are sprayed with an active ingredient formulation of the desired concentration and, after drying, populated with caterpillars of the armyworm (Spodoptera frugiperda).
After 7 days, the activity in % is determined 100% means that all caterpillars have been killed; 0% means that none of the caterpillars have been killed.

Lucilia cuprina = Lucilia cuprina test (LUCICU); type: in vivo; conditions: application rate of 100 ppm; L1 larvae; after 2 days
Procedure: Lucilia cuprina Test (LUCICU)
• Solvent: dimethyl sulphoxide
To prepare an appropriate active ingredient formulation, 10 mg of active ingredient are mixed with 0.5 ml of dimethyl sulphoxide, and the concentrate is diluted with water to the desired concentration.
About 20 L1 larvae of the Australian sheep blowfly (Lucilia cuprina) are transferred into a test vessel containing minced horsemeat and the active ingredient preparation of the desired concentration.
After 2 days, the kill in % is determined 100% means that all the larvae have been killed; 0% means that none of the larvae have been killed.

Meloidogyne incognita = Meloidogyne incognita test (MELGIN); type: in vivo; conditions: application rate of 20 ppm; after 14 days, by formation of galls
Procedure: Meloidogyne Incognita Test (MELGIN)
• Solvent: 125.0 parts by weight of acetone
To produce an appropriate active ingredient formulation, 1 part by weight of active ingredient is mixed with the specified amounts of solvent and the concentrate is diluted to the desired concentration with water.
Vessels are filled with sand, active ingredient solution, an egg/larvae suspension of the southern root-knot nematode (Meloidogyne incognita) and lettuce seeds. The lettuce seeds germinate and the plants develop. The galls develop on the roots
After 14 days, the nematicidal efficacy in % is determined by the formation of galls. 100% means that no galls have been found; 0% means that the number of galls on the treated plants corresponds to the untreated control.

[3] = pH 2.7, HPLC method [a], read-out: logP[a]
[4] = pH 2.7, HPLC, pH 2.7, read-out: log P[a]

COC1=CC(=O)N(c2cc([S+]([O-])CC(F)(F)F)c(C)cc2F)C1 (centres unmarked) [Example 311, 1-{2-Fluoro-4-methyl-5-[(2,2,2-trifluoroethyl)sulphinyl]phenyl}-4-methoxy-1,5-dihydro-2H-pyrrol-2-one]
chromatographic logP [1]: 1.84 | pest or weed control at 500 g/ha (Tetranychus urticae): 100% | pest or weed control at 500 g/ha (Phaedon cochleariae; Phaedon cochleariae, 168 h, read-out: efficacy): 100% | efficacy (Boophilus microplus): 100% | efficacy (Myzus persicae; application rate of 500 g/ha): 90% | chromatographic logP [2, 3]: 1.83 | chromatographic logP [2, 4]: 1.83

CCCn1c(OC)nn(-c2cc([S+]([O-])CC(F)(F)F)c(C)cc2F)c1=O (centres unmarked) [Example 411]
logP[b] ([1]; method [b] neutral range): 2.41 | efficacy (Tetranychus urticae): 100% | efficacy (Phaedon cochleariae): 100% | efficacy (Boophilus microplus): 100% | efficacy (Myzus persicae; application rate of 100 g/ha): 90% | efficacy (Spodoptera frugiperda): 100% | logP[a] ([2]; HPLC, method [a] acidic range): 2.44

Cc1cc(F)c(-n2ncn(C(C)C)c2=O)cc1SCC(F)(F)F [Example 4, 2-{2-Fluoro-4-methyl-5-[(2,2,2-trifluoroethyl)sulphanyl]phenyl}-4-isopropyl-2,4-dihydro-3H-1,2,4-triazol-3-one]
efficacy (kill) (Lucilia cuprina): 80% | chromatographic logP [1]: 2.97 | pest or weed control at 500 g/ha (Tetranychus urticae): 90% | nematicidal efficacy (Meloidogyne incognita): 90% | chromatographic logP [2, 3]: 2.82 | chromatographic logP [2, 4]: 2.82
